From the NIST ThermoML archive (doi:10.1021/je500050p)
± gives the expanded uncertainty stated by the source.

Assay: activity coefficient (dimensionless); of the first substance listed, at infinite dilution; xn = mol fraction of the nth substance listed
Settings: 101 kPa, Liquid, Chromatography, x1 = 0

Row | activity coefficient (353.15 K) | activity coefficient (373.15 K) | Structure (SMILES) | activity coefficient (323.15 K) | activity coefficient (333.15 K) | activity coefficient (343.15 K)
1 | 0.78 ± 0.05 | 0.77 ± 0.05 | CC1CCCC1 [methylcyclopentane] + CCCCCCCCCCCCCC[N+](CCCCCC)(CCCCCC)CCCCCC.C[C@H](O)C(=O)[O-] | 0.82 ± 0.05 | – | –
2 | – | – | C1COCCO1 [1,4-dioxane] + CC1(C)[C@@H]2CC[C@@]1(CS(=O)(=O)[O-])C(=O)C2.CCCCCCCCCCCCCC[N+](CCCCCC)(CCCCCC)CCCCCC | 0.52 ± 0.04 | 0.74 ± 0.05 | 1
3 | – | – | c1ccccc1 [benzene] + CC1(C)[C@@H]2CC[C@@]1(CS(=O)(=O)[O-])C(=O)C2.CCCCCCCCCCCCCC[N+](CCCCCC)(CCCCCC)CCCCCC | 0.36 ± 0.03 | 0.51 ± 0.04 | 0.69 ± 0.05
4 | 0.04 | 0.03 | ClC(Cl)Cl [trichloromethane] + CCCCCCCCCCCCCC[N+](CCCCCC)(CCCCCC)CCCCCC.C[C@H](O)C(=O)[O-] | 0.05 | – | –
5 | 0.95 ± 0.06 | 0.97 ± 0.06 | C=CCCCC [hex-1-ene] + CCCCCCCCCCCCCC[N+](CCCCCC)(CCCCCC)CCCCCC.C[C@H](O)C(=O)[O-] | 0.93 ± 0.06 | – | –
6 | – | – | CCc1ccccc1 [ethylbenzene] + CC1(C)[C@@H]2CC[C@@]1(CS(=O)(=O)[O-])C(=O)C2.CCCCCCCCCCCCCC[N+](CCCCCC)(CCCCCC)CCCCCC | 0.49 ± 0.04 | 0.76 ± 0.05 | 1.11 ± 0.07
7 | – | – | CCCCCCCCCC [decane] + CC1(C)[C@@H]2CC[C@@]1(CS(=O)(=O)[O-])C(=O)C2.CCCCCCCCCCCCCC[N+](CCCCCC)(CCCCCC)CCCCCC | 1.52 ± 0.1 | 2.41 ± 0.16 | 3.63 ± 0.25
8 | – | – | CCC[N+](=O)[O-] [1-nitropropane] + CC1(C)[C@@H]2CC[C@@]1(CS(=O)(=O)[O-])C(=O)C2.CCCCCCCCCCCCCC[N+](CCCCCC)(CCCCCC)CCCCCC | 0.35 ± 0.03 | 0.55 ± 0.04 | 0.82 ± 0.05
9 | – | – | CCCCCCCCCCC [undecane] + CC1(C)[C@@H]2CC[C@@]1(CS(=O)(=O)[O-])C(=O)C2.CCCCCCCCCCCCCC[N+](CCCCCC)(CCCCCC)CCCCCC | 1.62 ± 0.11 | 2.84 ± 0.19 | 4.32 ± 0.29
10 | – | – | C[N+](=O)[O-] [nitromethane] + CC1(C)[C@@H]2CC[C@@]1(CS(=O)(=O)[O-])C(=O)C2.CCCCCCCCCCCCCC[N+](CCCCCC)(CCCCCC)CCCCCC | 0.34 ± 0.03 | 0.5 ± 0.1 | 0.7 ± 0.1
11 | – | – | CCN(CC)CC [triethylamine] + CC1(C)[C@@H]2CC[C@@]1(CS(=O)(=O)[O-])C(=O)C2.CCCCCCCCCCCCCC[N+](CCCCCC)(CCCCCC)CCCCCC | 0.84 ± 0.05 | 1.23 ± 0.08 | 1.55 ± 0.1
12 | 0.56 ± 0.04 | 0.57 ± 0.04 | CCc1ccccc1 [ethylbenzene] + CCCCCCCCCCCCCC[N+](CCCCCC)(CCCCCC)CCCCCC.C[C@H](O)C(=O)[O-] | 0.56 ± 0.04 | – | –
13 | – | – | CCCCCCC [heptane] + CC1(C)[C@@H]2CC[C@@]1(CS(=O)(=O)[O-])C(=O)C2.CCCCCCCCCCCCCC[N+](CCCCCC)(CCCCCC)CCCCCC | 1.14 ± 0.07 | 1.57 ± 0.1 | 2.14 ± 0.15
14 | – | – | CCCCCCCC [octane] + CC1(C)[C@@H]2CC[C@@]1(CS(=O)(=O)[O-])C(=O)C2.CCCCCCCCCCCCCC[N+](CCCCCC)(CCCCCC)CCCCCC | 1.24 ± 0.08 | 1.81 ± 0.12 | 2.53 ± 0.17

Row | Structure (SMILES) | activity coefficient (353.15 K) | activity coefficient (373.15 K) | activity coefficient (323.15 K) | activity coefficient (333.15 K) | activity coefficient (343.15 K)
15 | CCOCC [diethyl ether] + CCCCCCCCCCCCCC[N+](CCCCCC)(CCCCCC)CCCCCC.C[C@H](O)C(=O)[O-] | 0.79 ± 0.05 | 0.77 ± 0.05 | 0.84 ± 0.05 | – | –
16 | Cc1ccc(C)cc1 [1,4-dimethylbenzene] + CCCCCCCCCCCCCC[N+](CCCCCC)(CCCCCC)CCCCCC.C[C@H](O)C(=O)[O-] | 0.58 ± 0.04 | 0.58 ± 0.04 | 0.58 ± 0.04 | – | –
